Results reported in PubChem BioAssay (NCI).
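Cells were grown in 96-well plates and exposed to each compound for 48 hours at five concentrations; endpoints were interpolated linearly between bracketing concentrations, or set to the highest concentration if not reached. The concentration for 50% growth inhibition is given as GI50. TGI marks complete inhibition of growth.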

Legend:
Test in all cases: NCI anticancer screen, dose series, 48 h
UACC-62 melanoma = system: UACC-62 melanoma
MDA-MB-435 = system: MDA-MB-435
HL-60(TB) leukemia = system: HL-60(TB) leukemia
NCI-H23 lung = system: NCI-H23 lung
HCT-116 colon = system: HCT-116 colon
LOX IMVI melanoma = system: LOX IMVI melanoma
NCI-H460 lung = system: NCI-H460 lung
SNB-75 CNS = system: SNB-75 CNS
HCC-2998 colon = system: HCC-2998 colon
SF-295 CNS = system: SF-295 CNS

For `COC(=O)c1ccc2c(c1)C(=O)c1c-2n(CCCN)c(=O)c2cc([N+](=O)[O-])ccc12`, the GI50 (UACC-62 melanoma) was < 0.0254 µM, the TGI (UACC-62 melanoma) was 0.398 µM and the GI50 (MDA-MB-435) was 0.105 µM. For the same molecule, the TGI (MDA-MB-435) was 1.44 µM, the GI50 (HL-60(TB) leukemia) was < 0.0194 µM and the TGI (HL-60(TB) leukemia) was 1.39 µM. The GI50 (NCI-H23 lung) was < 0.0318 µM, the TGI (NCI-H23 lung) was 1.28 µM and the GI50 (HCT-116 colon) was 0.0337 µM. The TGI (HCT-116 colon) was 0.959 µM, the GI50 (LOX IMVI melanoma) was < 0.0115 µM and the TGI (LOX IMVI melanoma) was 0.154 µM. For the same molecule, the GI50 (NCI-H460 lung) was 0.0434 µM, the TGI (NCI-H460 lung) was 1.1 µM and the GI50 (SNB-75 CNS) was < 0.0348 µM. For the same molecule, the GI50 (HCC-2998 colon) was < 0.01 µM, the TGI (HCC-2998 colon) was 0.058 µM and the GI50 (SF-295 CNS) was < 0.01 µM.
`C=CC(=O)N1CCC([C@@H]2CCNc3c(C(N)=O)c(-c4ccc(Oc5ccccc5)cc4)nn32)CC1` showed a GI50 (UACC-62 melanoma) of 11.4 µM, a TGI (UACC-62 melanoma) of 26.6 µM and a GI50 (MDA-MB-435) of 17.8 µM. The TGI (MDA-MB-435) was 44.6 µM, the GI50 (HL-60(TB) leukemia) was 15.5 µM and the TGI (HL-60(TB) leukemia) was 49.7 µM. It also gave a GI50 (NCI-H23 lung) of 17.5 µM, a TGI (NCI-H23 lung) of 43.2 µM and a GI50 (HCT-116 colon) of 17.1 µM. It also gave a TGI (HCT-116 colon) of 39.3 µM, a GI50 (LOX IMVI melanoma) of 15.2 µM and a TGI (LOX IMVI melanoma) of 36.3 µM. The GI50 (NCI-H460 lung) was 29.8 µM, the TGI (NCI-H460 lung) was > 89.7 µM and the GI50 (SNB-75 CNS) was 5.39 µM. The TGI (SNB-75 CNS) was 30.6 µM, the GI50 (HCC-2998 colon) was 14.2 µM and the TGI (HCC-2998 colon) was 29.6 µM. The GI50 (SF-295 CNS) was 22.4 µM and the TGI (SF-295 CNS) was > 76.6 µM.
In the case of `CO[C@H]1C[C@@H]2CC[C@@H](C)[C@@](O)(O2)C(=O)C(=O)N2CCCC[C@H]2C(=O)O[C@H]([C@H](C)C[C@@H]2CC[C@@H](OP(C)(C)=O)[C@H](OC)C2)CC(=O)[C@H](C)/C=C(\C)[C@@H](O)[C@@H](OC)C(=O)[C@H](C)C[C@H](C)/C=C/C=C/C=C/1C`, the GI50 (UACC-62 melanoma) is reported as 0.386 µM, the TGI (UACC-62 melanoma) is reported as 20.7 µM and the GI50 (MDA-MB-435) is reported as 1.41 µM. It also gave a TGI (MDA-MB-435) of 23.9 µM, a GI50 (HL-60(TB) leukemia) of 17.5 µM and a TGI (HL-60(TB) leukemia) of 39.8 µM. For the same molecule, the GI50 (NCI-H23 lung) was 11.1 µM, the TGI (NCI-H23 lung) was 29.1 µM and the GI50 (HCT-116 colon) was 11.8 µM. For the same molecule, the TGI (HCT-116 colon) was 24.8 µM, the GI50 (LOX IMVI melanoma) was < 0.01 µM and the TGI (LOX IMVI melanoma) was 21.7 µM. The TGI (NCI-H460 lung) was 21.8 µM, the GI50 (SNB-75 CNS) was < 0.01 µM and the TGI (SNB-75 CNS) was 15.7 µM. The GI50 (HCC-2998 colon) was 5.02 µM, the TGI (HCC-2998 colon) was 24.7 µM and the GI50 (SF-295 CNS) was < 0.01 µM. It also gave a TGI (SF-295 CNS) of 15.5 µM.
`O=C(O)c1ccc(NCc2nc3cc4ccccc4cc3[nH]2)cc1` was tested, and the TGI (UACC-62 melanoma) was > 100 µM, the TGI (MDA-MB-435) was > 100 µM and the TGI (HL-60(TB) leukemia) was > 54.8 µM. The TGI (NCI-H23 lung) was > 100 µM, the TGI (HCT-116 colon) was > 100 µM and the TGI (LOX IMVI melanoma) was > 100 µM. For the same molecule, the TGI (NCI-H460 lung) was > 100 µM, the TGI (SNB-75 CNS) was > 100 µM and the TGI (HCC-2998 colon) was > 100 µM. The TGI (SF-295 CNS) was > 100 µM.
`c1ccc(-c2nnc(Nc3ccc4c(c3)OCCO4)o2)c(NCc2ccncc2)c1` was tested, and the GI50 (UACC-62 melanoma) was 0.0312 µM, the TGI (UACC-62 melanoma) was > 100 µM and the GI50 (MDA-MB-435) was < 0.01 µM. For the same molecule, the TGI (MDA-MB-435) was 0.0171 µM, the GI50 (HL-60(TB) leukemia) was 0.0236 µM and the TGI (HL-60(TB) leukemia) was 0.722 µM. The GI50 (NCI-H23 lung) was 0.033 µM, the TGI (NCI-H23 lung) was 6.81 µM and the GI50 (HCT-116 colon) was 0.0282 µM. For the same molecule, the TGI (HCT-116 colon) was 11.8 µM, the GI50 (LOX IMVI melanoma) was 0.0459 µM and the TGI (LOX IMVI melanoma) was > 100 µM. It also gave a GI50 (NCI-H460 lung) of 0.0313 µM, a TGI (NCI-H460 lung) of 15.2 µM and a GI50 (SNB-75 CNS) of 0.0125 µM. It also gave a TGI (SNB-75 CNS) of 12.1 µM, a GI50 (HCC-2998 colon) of 0.0296 µM and a TGI (HCC-2998 colon) of 1.35 µM. For the same molecule, the GI50 (SF-295 CNS) was 0.0136 µM and the TGI (SF-295 CNS) was > 100 µM.
Molecule `S=C=NCc1ccccc1` has a TGI (UACC-62 melanoma) of 14.1 µM, a TGI (MDA-MB-435) of 8.33 µM and a TGI (HL-60(TB) leukemia) of 3.95 µM. The TGI (NCI-H23 lung) was 15.2 µM, the TGI (HCT-116 colon) was 2.36 µM and the TGI (LOX IMVI melanoma) was > 22.5 µM. The TGI (NCI-H460 lung) was 24.5 µM, the TGI (SNB-75 CNS) was 17.1 µM and the TGI (HCC-2998 colon) was 23.1 µM. It also gave a TGI (SF-295 CNS) of 19.4 µM.
`CN1CCN(Cc2ccc(NC(=O)c3nc4ccc5[nH]ncc5c4c4c3CCC4)cc2C(F)(F)F)CC1` was tested, and the GI50 (UACC-62 melanoma) was 1.88 µM, the TGI (UACC-62 melanoma) was 6.94 µM and the GI50 (MDA-MB-435) was 0.926 µM. For the same molecule, the TGI (MDA-MB-435) was 1.71 µM, the GI50 (HL-60(TB) leukemia) was 1.06 µM and the TGI (HL-60(TB) leukemia) was 2.28 µM. For the same molecule, the GI50 (NCI-H23 lung) was 1.07 µM, the TGI (NCI-H23 lung) was 3.22 µM and the GI50 (HCT-116 colon) was 0.856 µM. For the same molecule, the TGI (HCT-116 colon) was 1.61 µM, the GI50 (LOX IMVI melanoma) was 0.832 µM and the TGI (LOX IMVI melanoma) was 1.54 µM. The GI50 (NCI-H460 lung) was 0.926 µM, the TGI (NCI-H460 lung) was 1.73 µM and the GI50 (SNB-75 CNS) was 4.81 µM. For the same molecule, the TGI (SNB-75 CNS) was 10.8 µM, the GI50 (HCC-2998 colon) was 0.83 µM and the TGI (HCC-2998 colon) was 1.65 µM. For the same molecule, the GI50 (SF-295 CNS) was 6.97 µM and the TGI (SF-295 CNS) was 13.8 µM.
With `C/C1=C\C/C=C(\C)[C@H]2CC(CC/C(C)=C/CC1)[C@@](C)(CO)O2` the GI50 (UACC-62 melanoma) was 69.2 µM, the TGI (UACC-62 melanoma) was > 100 µM and the GI50 (MDA-MB-435) was > 100 µM. The TGI (MDA-MB-435) was > 100 µM, the GI50 (HL-60(TB) leukemia) was 16.8 µM and the TGI (HL-60(TB) leukemia) was 51.1 µM. The GI50 (NCI-H23 lung) was > 100 µM, the TGI (NCI-H23 lung) was > 100 µM and the GI50 (HCT-116 colon) was 44.5 µM. For the same molecule, the TGI (HCT-116 colon) was > 100 µM, the GI50 (LOX IMVI melanoma) was 23.3 µM and the TGI (LOX IMVI melanoma) was 54 µM. For the same molecule, the GI50 (NCI-H460 lung) was 74.4 µM, the TGI (NCI-H460 lung) was > 100 µM and the GI50 (SNB-75 CNS) was > 100 µM. The TGI (SNB-75 CNS) was > 100 µM, the GI50 (HCC-2998 colon) was > 100 µM and the TGI (HCC-2998 colon) was > 100 µM. The GI50 (SF-295 CNS) was 59.3 µM and the TGI (SF-295 CNS) was > 100 µM.
